In patent US11524940B1, “Inhibitors of cysteine proteases and methods of use thereof” (priority 2020, dated 2022) one finds EC50 and IC50 data, which are given here for 13 compounds.

The target in assay [1] is 229E Mpro (Human coronavirus 229E (HCoV-229E), UniProt P0C6X1). Put plainly: 229E Mpro activity. It is filed as biochemical. The note with it: read-out: 229E Mpro EC50.
Experimental: Compounds are assayed using standard methods to assess compound activity and IC50. […] The assay buffer contains 20 mM of Tris-HCl (pH 7.3), 100 mM of NaCl, 1 mM of EDTA, 5mM of TCEP and 0.1% BSA.
Assay [2] concerns Human Coronavirus (HCov) 229E. Put plainly: HCoV 229E cytopathic effect (CPE) assay. The conditions noted are these: protection from virus-induced CPE, CellTiter Glo. It is filed as cell-based.
Experimental: The antiviral activity of compounds is calculated based on the protection of the virus-induced CPE at each concentration normalized by the virus control.
Reagents and instruments used in this assay include luminescent cell viability assay kit CellTiter Glo (Promega) and Microplate Reader Synergy2 (BioTek).
Cytopathic effect (CPE) is measured by CellTiter Glo following the manufacturer's manual. The antiviral activity of compounds is calculated based on the protection of the virus-induced CPE at each concentration normalized by the virus control.
The target in assay [3] is SARS-CoV2 Mpro (Severe acute respiratory syndrome coronavirus 2 (2019-nCoV) (SARS-CoV-2), UniProt P0DTD1). In words: COVID-19 (SARS-CoV2) Mpro enzymatic assay. It is filed as biochemical. The conditions noted are these: 25 nM Mpro, 25 μM substrate.

Chain of 229E Mpro (P0C6X1 2966-3267 limits assumed): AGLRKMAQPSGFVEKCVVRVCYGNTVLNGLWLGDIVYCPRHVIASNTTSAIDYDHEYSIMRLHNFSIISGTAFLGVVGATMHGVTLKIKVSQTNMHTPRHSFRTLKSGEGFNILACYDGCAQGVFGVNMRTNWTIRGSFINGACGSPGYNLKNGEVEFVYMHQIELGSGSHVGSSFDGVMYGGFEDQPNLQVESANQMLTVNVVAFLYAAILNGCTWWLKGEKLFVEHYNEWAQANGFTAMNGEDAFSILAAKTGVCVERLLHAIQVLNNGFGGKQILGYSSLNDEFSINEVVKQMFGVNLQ

Broadly, the EC50 is the concentration giving half of the maximal effect. In the case of `COc1cccc2[nH]c(C(=O)N[C@@H](CC(C)C)C(=O)NC(C#N)c3cccnc3)cc12` (mixture of isomers) [Compound 433, N-[(1S)-1-[[cyano(3-pyridyl)methyl]carbamoyl]-3-methyl-butyl]-4-methoxy-1H-indole-2-carboxamide], the concentration giving a half-maximal response (EC50) in assay [1] was under 2 µM; in assay [2] (human coronavirus 229E) it was 2 to 10 µM.

For the compound `COc1cccc2[nH]c(C(=O)N[C@@H](CC(C)C)C(=O)N[C@@H](CC3CCNC3=O)C(C#N)NCc3ccccc3)cc12` (single isomer, unassigned) [507 (Isomer 1.1)], the EC50 in assay [1] and in assay [2] (human coronavirus 229E) was under 2 µM in each case.

Regarding `COc1cccc2[nH]c(C(=O)N[C@@H](CC(C)C)C(=O)N[C@@H](CC3CCNC3=O)C(C#N)NCc3ccccc3)cc12` (single isomer, unassigned) [507 (Isomer 1.2)], the concentration giving a half-maximal response (EC50) in assay [1] and in assay [2] was under 2 µM throughout.

Consider `COc1cccc2[nH]c(C(=O)N[C@@H](CC(C)C)C(=O)N[C@@H](CC3CCNC3=O)C(C#N)NCc3ccccc3)cc12` (single isomer, unassigned) [507 (Isomer 2.2)], for which the EC50 in assay [1] and in assay [2] was under 2 µM in each case.

Broadly, the IC50 is the concentration needed to halve the response being measured. A high value points to weaker potency in that assay. On to `COc1cc(Cl)c2[nH]c(C(=O)N3CC4(CCCCC4)CC3C(=O)N[C@H](C#N)C[C@@H]3CCCNC3=O)cc2c1` (single isomer, unassigned) [1147A (Isomer 2)], for which the half-inhibitory concentration (IC50) in assay [3] fell in the range of 2 to 10 µM. In addition, the EC50 in assay [1] was 10 to 30 µM.

In assay [3], `COc1cccc2[nH]c(C(=O)N3CC[C@H](c4ccccc4)[C@H]3C(=O)N[C@H](C#N)C[C@@H]3CCNC3=O)cc12` [Compound 163, (2S,3R)-N-((S)-1-cyano-2-((S)-2-oxopyrrolidin-3-yl)ethyl)-1-(4-methoxy-1H-indole-2-carbonyl)-3-phenylpyrrolidine-2-carboxamide] showed a half-maximal inhibitory concentration (IC50) of 2 to 10 µM. Further, the half-maximal effective concentration (EC50) in assay [1] lay in the range of 10 to 30 µM.

In assay [3], `COc1cccc2[nH]c(C(=O)N[C@@H](Cc3cccnc3)C(=O)N[C@H](C#N)C[C@@H]3CCNC3=O)cc12` [Compound 191, N-[(1S)-2-[[(1S)-1-cyano-2-[(3S)-2-oxopyrrolidin-3-yl]ethyl]amino]-2-oxo-1-(3-pyridylmethyl)ethyl]-4-methoxy-1H-indole-2-carboxamide] had a half-inhibitory concentration (IC50) of 2 to 10 µM. Moreover, the concentration giving a half-maximal response (EC50) in assay [1] was over 30 µM.

Consider `COc1cccc2[nH]c(C(=O)N3NCCC[C@H]3C(=O)N[C@H](C#N)C[C@@H]3CCNC3=O)cc12` [Compound 199], for which the 50% inhibitory concentration (IC50) in assay [3] was in the range of 10 to 30 µM. The EC50 in assay [1] was over 30 µM.

As for `COc1cccc2[nH]c(C(=O)N3C[C@H](C)C[C@H]3C(=O)N[C@H](C#N)C[C@@H]3CCNC3=O)cc12` [Compound 413], the IC50 in assay [3] fell in the range of 2 to 10 µM. Besides, in assay [1], the EC50 is under 2 µM.

Turning to `COc1cccc2[nH]c(C(=O)N[C@@H](CC3CC3)C(=O)N[C@H](C#N)Cc3ccccn3)cc12` [Compound 439, N-[(1S)-2-[[(1S)-1-cyano-2-(2-pyridyl)ethyl]amino]-1-(cyclopropylmethyl)-2-oxo-ethyl]-4-methoxy-1H-indole-2-carboxamide], the concentration for half-maximal inhibition (IC50) in assay [3] was in the range of 10 to 30 µM. In addition, the EC50 in assay [1] was over 30 µM.

With `COCCOCCOC(=O)N[C@@H](CC1CC1)C(=O)N[C@H](C#N)C[C@@H]1CCNC1=O` [Compound 671, 2-(2-methoxyethoxy)ethyl N-[(1S)-2-[[(1S)-1-cyano-2-[(3S)-2-oxopyrrolidin-3-yl]ethyl]amino]-1-(cyclopropylmethyl)-2-oxo-ethyl]carbamate], the IC50 in assay [3] was 2 to 10 µM. Moreover, the EC50 in assay [1] was 10 to 30 µM.

Take `N#C[C@H](C[C@@H]1CCCNC1=O)NC(=O)[C@H](CC1CC1)NC(=O)c1ccn[nH]1` [Compound 872, N-((S)-1-(((S)-1-cyano-2-((S)-2-oxopiperidin-3-yl)ethyl)amino)-3-cyclopropyl-1-oxopropan-2-yl)-1H-pyrazole-5-carboxamide]: the IC50 in assay [3] was in the range of 2 to 10 µM. For the same compound, the EC50 in assay [1] fell in the range of 2 to 10 µM.

Take `COC(=O)NS(=O)(=O)n1nccc1C(=O)N[C@@H](CC1CC1)C(=O)N[C@H](C#N)C[C@@H]1CCCNC1=O` [Compound 1258]: in assay [3], the IC50 fell in the range of 2 to 10 µM. The EC50 in assay [1] lay in the range of 2 to 10 µM.
